Key:
Assay in all cases: CPE-RA, letermovir-selected mutant
Type in all cases: cell-based, human cytomegalovirus (HCMV)
[1] = system: HCMV AD169 mutant rAIC246-1 (UL56 L241P); conditions: for EC50: Human betaherpesvirus 5, AD169
Method: (§1) HCMV Cytopathic Effect Reduction Assay (CPE-RA)
(§2) CPE-RAs were performed basically as described elsewhere (HCMV replication assay). In brief, the addition of 2 μl test compound of 50, 5, 0.5, 0.05, 0.005, and 0.0005 mM DMSO stock solutions to 100 μl cell culture medium in duplicate was followed by serial 2-fold dilutions in 96-well microtiter plates. Each well was supplemented with 150 μl of either a suspension of 1×10^4 NHDF cells mixed with cell-free HCMV (multiplicity of infection (MOI), 0.03) or a suspension of 1×10^4 to 3×10^4 HCMV-infected and uninfected NHDF cells (MOI, 0.001 to 0.002). Non-infected and non-treated cells served as controls on each plate. Final compound concentrations ranged between 250 and 0.00005 μM. Plates were incubated for 6 to 7 days at 37° C. or until the virus control reached 100% CPE. A mixture containing 20% Giemsa stain (Merck) and 5% formalin solution (Merck) was added to the wells for fixation and staining. After extensive washing, plates were dried at 56° C. followed by visual evaluation using an overhead microscope (plaque magnifier; Tecnorama Zürich). Each assay was performed at least in triplicate, and standard deviations were calculated. The assay plate data were used to calculate the EC50 (CPE-RA), i.e., the concentration of drug that inhibits the CPE by 50% compared with an untreated virus-infected control.
(§3) Drug-resistant HCMV AD169 mutants were selected by the single-step selection method or by serial passage of the virus in the presence of increasing concentration of Letermovir. Briefly, 5×10^3 AD169-infected NHDF cells/well (MOI, 0.03 PFU/cell) were seeded into the wells of 30 96-well microtiter plates. The infection was allowed to proceed under the exposure of 50 nM Letermovir (˜10×EC50) until a CPE developed in one or more of the compound-treated wells (indicative of resistant virus breakthrough). Non-infected and non-treated cells served as controls on each plate. Mutant virus amplification was accomplished after cultures achieved maximum CPE by the passage of cell-free supernatant virus in the presence of 50 nM Letermovir. The resultant Letermovir-resistant progeny virus mutants were plaque purified three times by limiting dilutions in the presence of Letermovir. The stability of resistance was tested by serially passaging plaque-purified viruses without selective pressure (8 to 10 times). The resistant phenotype of the mutants was confirmed by CPE reduction assays.

[2] = system: HCMV AD169 mutant rAIC246-10 (UL56 V236M); conditions: for EC50: Human betaherpesvirus 5, AD169, rAIC246-10 (UL56 V236M), CPE reduction assay, mean ± SD
Method: as §1, §2, §3

[3] = system: HCMV AD169 mutant rAIC246-3 (UL56 C325Y); conditions: for EC50: Human betaherpesvirus 5, AD169, rAIC246-3 (UL56 C325Y), CPE reduction assay, mean ± SD
Method: as §1, §2, §3

[4] = system: HCMV AD169 mutant rAIC246-9 (UL56 R369G); conditions: for EC50: Human betaherpesvirus 5, AD169, rAIC246-9 (UL56 R369G), CPE reduction assay, mean ± SD
Method: as §1, §2, §3

[5] = system: HCMV AD169 mutant rAIC246-7 (UL56 L241P); conditions: for EC50: Human betaherpesvirus 5, AD169, rAIC246-7 (UL56 L241P), CPE reduction assay, mean ± SD
Method: as §1, §2, §3

[6] = system: HCMV AD169 mutant rAIC246-8 (UL56 C325Y); conditions: for EC50: Human betaherpesvirus 5, AD169, rAIC246-8 (UL56 C325Y), CPE reduction assay, mean ± SD
Method: as §1, §2, §3

[7] = system: HCMV AD169 mutant rAIC246-6 (UL56 R369M); conditions: for EC50: Human betaherpesvirus 5, AD169, rAIC246-6 (UL56 R369M), CPE reduction assay, mean ± SD
Method: as §1, §2, §3

[8] = system: HCMV AD169 mutant rAIC246-4 (UL56 V231L); conditions: for EC50: Human betaherpesvirus 5, AD169, rAIC246-4 (UL56 V231L), CPE reduction assay, mean ± SD
Method: as §1, §2, §3

[9] = system: HCMV AD169 mutant rAIC246-2 (UL56 R369S); conditions: for EC50: Human betaherpesvirus 5, AD169, rAIC246-2 (UL56 R369S), CPE reduction assay, mean ± SD
Method: as §1, §2, §3

[10] = system: HCMV AD169 mutant rAIC246-5 (UL56 R369M); conditions: for EC50: Human betaherpesvirus 5, AD169, rAIC246-5 (UL56 R369M), CPE reduction assay, mean ± SD
Method: as §1, §2, §3

Row | Structure (SMILES) | EC50 [1] | EC50 [2] | EC50 [3] | EC50 [4] | EC50 [5] | EC50 [6] | EC50 [7] | EC50 [8] | EC50 [9] | EC50 [10] | Resistance index (RI) = letermovir-EC50 mutant virus/letermovir-EC50 wild-type virus ([1]; rAIC246-1 vs AD169) | Resistance index (RI) = letermovir-EC50 mutant virus/letermovir-EC50 wild-type virus ([2]; rAIC246-10 vs AD169) | Resistance index (RI) = letermovir-EC50 mutant virus/letermovir-EC50 wild-type virus ([3]; rAIC246-3 vs AD169) | Resistance index (RI) = letermovir-EC50 mutant virus/letermovir-EC50 wild-type virus ([4]; rAIC246-9 vs AD169) | Resistance index (RI) = letermovir-EC50 mutant virus/letermovir-EC50 wild-type virus ([5]; rAIC246-7 vs AD169) | Resistance index (RI) = letermovir-EC50 mutant virus/letermovir-EC50 wild-type virus ([6]; rAIC246-8 vs AD169) | Resistance index (RI) = letermovir-EC50 mutant virus/letermovir-EC50 wild-type virus ([7]; rAIC246-6 vs AD169) | Resistance index (RI) = letermovir-EC50 mutant virus/letermovir-EC50 wild-type virus ([8]; rAIC246-4 vs AD169) | Resistance index (RI) = letermovir-EC50 mutant virus/letermovir-EC50 wild-type virus ([9]; rAIC246-2 vs AD169) | Resistance index (RI) = letermovir-EC50 mutant virus/letermovir-EC50 wild-type virus ([10]; rAIC246-5 vs AD169)
1 | Nc1nc(O)c2ncn(COC(CO)CO)c2n1 [Ganciclovir] | 1200 ± 200 nM | 1700 ± 300 nM | 2400 ± 2500 nM | 1700 ± 200 nM | 2200 ± 600 nM | 2200 ± 1200 nM | 2900 ± 900 nM | 4200 ± 1300 nM | 4000 ± 900 nM | 5000 ± 400 nM | – | – | – | – | – | – | – | – | – | –
2 | COc1cccc(N2CCN(C3=Nc4c(F)cccc4[C@H](CC(=O)O)N3c3cc(C(F)(F)F)ccc3OC)CC2)c1 [Letermovir, (S)-{8-fluoro-2-[4-(3-methoxyphenyl)-1-piperazinyl]-3-[2-methoxy-5-(trifluoromethyl)phenyl]-3,4-dihydro-4-quinazolinyl}acetic acid] | 1240 ± 360 nM | 70 ± 20 nM | 27000 ± 3270 nM | 60 ± 40 nM | 920 ± 120 nM | 25000 ± 5530 nM | 80 ± 20 nM | 130 ± 10 nM | 370 ± 70 nM | 110 ± 10 nM | 221 | 13 | 4801 | 11 | 164 | 4428 | 14 | 23 | 66 | 19
